According to ChEMBL document CHEMBL1201862, “PubChem BioAssay data set” (2004):
Calls of active or inactive are those of the source.

Experiments:
[1] = target: T1, Ubiquitin-conjugating enzyme E2 N (Homo sapiens, UniProt P61088); assay type: functional;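 note: Dose-response confirmation in a TR-FRET assay detecting UBC13-driven polyubiquitin chain formation, inhibition measured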
T1 sequence (P61088 whole entry): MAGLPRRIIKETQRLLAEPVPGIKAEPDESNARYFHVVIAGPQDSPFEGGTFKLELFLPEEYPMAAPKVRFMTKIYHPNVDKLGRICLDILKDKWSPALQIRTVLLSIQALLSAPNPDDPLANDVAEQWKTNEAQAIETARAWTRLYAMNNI

[2] = target: FAD-linked sulfhydryl oxidase ALR (Homo sapiens, UniProt P55789); assay: ALR-catalysed DTT oxidation blockers – biochemical, H2O2 detection, luminescence, cherry-pick, dose response (AID 493248)
[3] = reduction of Shn3 3'UTR-driven luciferase in osteoblasts – cell-based, Clone20 osteoblasts, firefly luciferase, cherry-picked, dose response (AID 624132); assay type: functional;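 note: firefly luciferase luminescence from reporter carrying the Shn3 3'UTR in osteoblasts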
[4] = loss of viability in HepG2 cells – cell-based, CellTiter-Glo, cherry-picked, cytotoxicity control for Shn3 inhibitor project, dose response (AID 624134); assay type: functional
[5] = non-specific 3'UTR reporter inhibition in Clone20-Shn3RL – cell-based, Renilla luciferase, cherry-picked, counter-screen for Shn3 inhibitor project, dose response (AID 624133); assay type: functional
Nonstructural protein 1 = Nonstructural protein 1 (Influenza A virus, UniProt Q194T2); assay type: functional, Influenza A virus (A/California/07/2009(H1N1))
[6] = system: Streptococcus sp. 'group A'; assay: Streptococcus pyogenes SK(-)GAS viability under kanamycin – luminescence, BacTiterGlo, confirmation, counter-screen for streptokinase expression inhibitor project, dose response (AID 1900); assay type: functional, organism-based
Streptokinase A = target: T2, Streptokinase A (Streptococcus pyogenes serotype M1, UniProt P10520); assay: viability-normalized secreted streptokinase activity reduction – plasminogen activation absorbance, OD405, dose response (AID 1914); assay type: functional, Streptococcus pyogenes M1 GAS;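 note: secreted streptokinase activity via plasminogen activation per viability signal from cell pellet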
T2 sequence (P10520 whole entry): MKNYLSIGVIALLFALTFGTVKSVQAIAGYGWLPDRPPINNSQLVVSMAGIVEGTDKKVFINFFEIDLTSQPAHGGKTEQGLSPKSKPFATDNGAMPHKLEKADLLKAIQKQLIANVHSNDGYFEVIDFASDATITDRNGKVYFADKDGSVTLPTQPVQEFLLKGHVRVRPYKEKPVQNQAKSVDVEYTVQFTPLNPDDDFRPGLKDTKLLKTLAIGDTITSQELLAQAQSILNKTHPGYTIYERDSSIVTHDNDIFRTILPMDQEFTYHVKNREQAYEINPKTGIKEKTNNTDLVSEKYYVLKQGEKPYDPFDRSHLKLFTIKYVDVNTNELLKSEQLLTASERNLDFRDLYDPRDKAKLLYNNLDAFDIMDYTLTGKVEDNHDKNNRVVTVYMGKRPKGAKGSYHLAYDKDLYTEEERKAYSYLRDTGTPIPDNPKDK

Streptococcus = assay: GAS UMAA2166 growth inhibition – luminescence, BacTiterGlo, counter-screen for streptokinase expression inhibitor project, dose response (AID 1915); assay type: functional, organism-based;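 note: potency for reduction of bacterial viability or growth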
[7] = blockers of HIV-1 envelope-mediated cell-cell fusion – cherry-pick, dose response (AID 652057); assay type: functional, cell-based
[8] = blockers of HIV-1 ZM109 envelope-driven cell-cell fusion – HeLa effector, CEM target cells, luciferase, cherry-pick, dose response (AID 652058); assay type: functional, cell-based;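 note: luciferase signal from HIV-1 Env mediated cell-cell fusion of effector and target cells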
[9] = off-target signal loss in HeLa-CEM21 co-culture – HeLa F-luc CTL cells, cherry-picked, counter-screen for HIV-1 Env fusion inhibitor project, dose response (AID 652040); assay type: functional, cell-based;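 note: potency for signal decrease marking cytotoxic or nonspecific inhibition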
Cytochrome P450 1A2 = target: T3, Cytochrome P450 1A2 (Homo sapiens, UniProt P05177);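 note: PubChem cytochrome P450 panel assay, CYP1A2 panel member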
T3 sequence (P05177 whole entry): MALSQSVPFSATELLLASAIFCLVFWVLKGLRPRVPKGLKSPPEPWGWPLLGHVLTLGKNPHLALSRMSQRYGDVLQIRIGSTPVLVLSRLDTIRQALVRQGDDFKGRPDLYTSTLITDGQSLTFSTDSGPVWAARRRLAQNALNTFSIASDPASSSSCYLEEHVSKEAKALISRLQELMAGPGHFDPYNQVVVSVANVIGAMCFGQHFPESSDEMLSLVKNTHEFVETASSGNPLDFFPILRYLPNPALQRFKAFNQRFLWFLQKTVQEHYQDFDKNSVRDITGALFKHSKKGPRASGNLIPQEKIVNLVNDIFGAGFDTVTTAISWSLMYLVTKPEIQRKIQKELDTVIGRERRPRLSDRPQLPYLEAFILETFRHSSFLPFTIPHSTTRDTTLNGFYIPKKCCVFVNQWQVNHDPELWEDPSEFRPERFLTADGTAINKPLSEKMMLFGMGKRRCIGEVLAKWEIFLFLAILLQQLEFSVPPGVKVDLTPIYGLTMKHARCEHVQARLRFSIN

Cytochrome P450 2C9 = Cytochrome P450 2C9 (Homo sapiens, UniProt P11712)
[10] = viability of uninfected HEp-2 cells – cell-based, HTS, cytotoxicity control for RSV inhibitor project, dose response (AID 2410); assay type: functional; conditions: human respiratory syncytial virus
Vero = assay: cells; assay type: functional; conditions: Chlorocebus sabaeus
[11] = target: T4, Carboxy-terminal domain RNA polymerase II polypeptide A small phosphatase 1 (Homo sapiens, UniProt Q9GZU7); assay: CTDSP1 inhibitors, concentration-response, biochemical, absorbance readout, ultra-high-throughput screen actives (AID 540297); assay type: functional
T4 sequence (Q9GZU7 whole entry): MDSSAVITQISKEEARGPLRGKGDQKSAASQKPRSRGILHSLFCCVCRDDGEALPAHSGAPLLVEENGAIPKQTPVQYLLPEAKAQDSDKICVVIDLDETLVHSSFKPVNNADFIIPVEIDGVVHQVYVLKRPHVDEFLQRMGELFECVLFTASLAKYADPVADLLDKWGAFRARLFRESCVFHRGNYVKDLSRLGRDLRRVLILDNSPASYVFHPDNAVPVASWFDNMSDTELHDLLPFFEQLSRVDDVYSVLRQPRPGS

[12] = target: T5, Short transient receptor potential channel 4 (Mus musculus, UniProt Q9QUQ5); assay: calcium entry via TRPC4 opening agents – cell-based, HEK293 TRPC4/mu-opioid, Fluo-4 calcium, dose response (AID 434937); assay type: functional
T5 sequence (Q9QUQ5 whole entry): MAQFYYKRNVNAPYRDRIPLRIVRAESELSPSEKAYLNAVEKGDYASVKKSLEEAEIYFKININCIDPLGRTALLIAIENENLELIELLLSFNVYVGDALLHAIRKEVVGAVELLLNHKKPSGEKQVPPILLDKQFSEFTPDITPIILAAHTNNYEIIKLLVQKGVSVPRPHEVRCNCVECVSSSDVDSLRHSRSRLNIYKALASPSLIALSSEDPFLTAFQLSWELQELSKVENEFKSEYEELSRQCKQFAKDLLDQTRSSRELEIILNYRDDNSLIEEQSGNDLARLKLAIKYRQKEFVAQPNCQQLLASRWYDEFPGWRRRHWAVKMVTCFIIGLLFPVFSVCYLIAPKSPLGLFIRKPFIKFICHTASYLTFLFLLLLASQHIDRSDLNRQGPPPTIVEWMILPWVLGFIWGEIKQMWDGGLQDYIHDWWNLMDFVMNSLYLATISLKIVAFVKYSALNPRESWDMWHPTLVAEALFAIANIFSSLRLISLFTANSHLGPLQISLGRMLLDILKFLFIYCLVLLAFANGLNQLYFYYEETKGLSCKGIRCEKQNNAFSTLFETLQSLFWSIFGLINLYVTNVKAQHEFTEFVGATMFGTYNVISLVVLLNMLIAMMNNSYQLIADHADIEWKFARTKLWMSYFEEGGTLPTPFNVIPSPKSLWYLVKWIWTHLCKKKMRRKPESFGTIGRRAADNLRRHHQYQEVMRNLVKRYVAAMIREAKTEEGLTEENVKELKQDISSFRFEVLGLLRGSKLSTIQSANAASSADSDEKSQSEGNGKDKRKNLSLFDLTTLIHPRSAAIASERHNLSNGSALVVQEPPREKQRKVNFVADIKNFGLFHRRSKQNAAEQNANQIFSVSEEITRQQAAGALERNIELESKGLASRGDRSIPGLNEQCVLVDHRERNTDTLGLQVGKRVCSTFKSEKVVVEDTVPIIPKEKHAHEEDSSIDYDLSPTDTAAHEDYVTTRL

[13] = target: Heat shock protein HSP 90-alpha (Homo sapiens, UniProt P07900); assay type: functional, organism-based
[14] = HIV-1 AD8 envelope cell-cell fusion blockers – cherry-pick, dose response (AID 652062); assay type: functional, cell-based;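 note: luciferase signal from cell-cell fusion driven by HIV-1 clade B AD8 Env; potency is for inhibitors of fusion seen as a drop in luminescence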
Fatty acid synthase = Fatty acid synthase (Homo sapiens, UniProt P49327); assay: inhibition of human FAS-TE enzyme activity – biochemical, kinetic fluorescence intensity, dose response (AID 624326); assay type: functional;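 note: rate of fluorescence rise from hydrolysis of a fluorogenic O-methyl fluorescein ester substrate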
P388/ADR = assay: cells; assay type: functional; conditions: Mus musculus
SN12K1 = assay: cells; assay type: functional; conditions: Homo sapiens

Chain of Nonstructural protein 1 (Q194T2 whole entry): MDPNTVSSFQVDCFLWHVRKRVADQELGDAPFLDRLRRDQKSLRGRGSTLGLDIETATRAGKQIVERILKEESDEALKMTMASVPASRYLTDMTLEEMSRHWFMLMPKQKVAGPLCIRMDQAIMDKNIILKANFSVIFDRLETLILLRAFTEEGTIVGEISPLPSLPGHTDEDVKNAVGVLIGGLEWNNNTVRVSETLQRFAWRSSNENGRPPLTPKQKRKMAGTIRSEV
Chain of Fatty acid synthase (P49327 whole entry): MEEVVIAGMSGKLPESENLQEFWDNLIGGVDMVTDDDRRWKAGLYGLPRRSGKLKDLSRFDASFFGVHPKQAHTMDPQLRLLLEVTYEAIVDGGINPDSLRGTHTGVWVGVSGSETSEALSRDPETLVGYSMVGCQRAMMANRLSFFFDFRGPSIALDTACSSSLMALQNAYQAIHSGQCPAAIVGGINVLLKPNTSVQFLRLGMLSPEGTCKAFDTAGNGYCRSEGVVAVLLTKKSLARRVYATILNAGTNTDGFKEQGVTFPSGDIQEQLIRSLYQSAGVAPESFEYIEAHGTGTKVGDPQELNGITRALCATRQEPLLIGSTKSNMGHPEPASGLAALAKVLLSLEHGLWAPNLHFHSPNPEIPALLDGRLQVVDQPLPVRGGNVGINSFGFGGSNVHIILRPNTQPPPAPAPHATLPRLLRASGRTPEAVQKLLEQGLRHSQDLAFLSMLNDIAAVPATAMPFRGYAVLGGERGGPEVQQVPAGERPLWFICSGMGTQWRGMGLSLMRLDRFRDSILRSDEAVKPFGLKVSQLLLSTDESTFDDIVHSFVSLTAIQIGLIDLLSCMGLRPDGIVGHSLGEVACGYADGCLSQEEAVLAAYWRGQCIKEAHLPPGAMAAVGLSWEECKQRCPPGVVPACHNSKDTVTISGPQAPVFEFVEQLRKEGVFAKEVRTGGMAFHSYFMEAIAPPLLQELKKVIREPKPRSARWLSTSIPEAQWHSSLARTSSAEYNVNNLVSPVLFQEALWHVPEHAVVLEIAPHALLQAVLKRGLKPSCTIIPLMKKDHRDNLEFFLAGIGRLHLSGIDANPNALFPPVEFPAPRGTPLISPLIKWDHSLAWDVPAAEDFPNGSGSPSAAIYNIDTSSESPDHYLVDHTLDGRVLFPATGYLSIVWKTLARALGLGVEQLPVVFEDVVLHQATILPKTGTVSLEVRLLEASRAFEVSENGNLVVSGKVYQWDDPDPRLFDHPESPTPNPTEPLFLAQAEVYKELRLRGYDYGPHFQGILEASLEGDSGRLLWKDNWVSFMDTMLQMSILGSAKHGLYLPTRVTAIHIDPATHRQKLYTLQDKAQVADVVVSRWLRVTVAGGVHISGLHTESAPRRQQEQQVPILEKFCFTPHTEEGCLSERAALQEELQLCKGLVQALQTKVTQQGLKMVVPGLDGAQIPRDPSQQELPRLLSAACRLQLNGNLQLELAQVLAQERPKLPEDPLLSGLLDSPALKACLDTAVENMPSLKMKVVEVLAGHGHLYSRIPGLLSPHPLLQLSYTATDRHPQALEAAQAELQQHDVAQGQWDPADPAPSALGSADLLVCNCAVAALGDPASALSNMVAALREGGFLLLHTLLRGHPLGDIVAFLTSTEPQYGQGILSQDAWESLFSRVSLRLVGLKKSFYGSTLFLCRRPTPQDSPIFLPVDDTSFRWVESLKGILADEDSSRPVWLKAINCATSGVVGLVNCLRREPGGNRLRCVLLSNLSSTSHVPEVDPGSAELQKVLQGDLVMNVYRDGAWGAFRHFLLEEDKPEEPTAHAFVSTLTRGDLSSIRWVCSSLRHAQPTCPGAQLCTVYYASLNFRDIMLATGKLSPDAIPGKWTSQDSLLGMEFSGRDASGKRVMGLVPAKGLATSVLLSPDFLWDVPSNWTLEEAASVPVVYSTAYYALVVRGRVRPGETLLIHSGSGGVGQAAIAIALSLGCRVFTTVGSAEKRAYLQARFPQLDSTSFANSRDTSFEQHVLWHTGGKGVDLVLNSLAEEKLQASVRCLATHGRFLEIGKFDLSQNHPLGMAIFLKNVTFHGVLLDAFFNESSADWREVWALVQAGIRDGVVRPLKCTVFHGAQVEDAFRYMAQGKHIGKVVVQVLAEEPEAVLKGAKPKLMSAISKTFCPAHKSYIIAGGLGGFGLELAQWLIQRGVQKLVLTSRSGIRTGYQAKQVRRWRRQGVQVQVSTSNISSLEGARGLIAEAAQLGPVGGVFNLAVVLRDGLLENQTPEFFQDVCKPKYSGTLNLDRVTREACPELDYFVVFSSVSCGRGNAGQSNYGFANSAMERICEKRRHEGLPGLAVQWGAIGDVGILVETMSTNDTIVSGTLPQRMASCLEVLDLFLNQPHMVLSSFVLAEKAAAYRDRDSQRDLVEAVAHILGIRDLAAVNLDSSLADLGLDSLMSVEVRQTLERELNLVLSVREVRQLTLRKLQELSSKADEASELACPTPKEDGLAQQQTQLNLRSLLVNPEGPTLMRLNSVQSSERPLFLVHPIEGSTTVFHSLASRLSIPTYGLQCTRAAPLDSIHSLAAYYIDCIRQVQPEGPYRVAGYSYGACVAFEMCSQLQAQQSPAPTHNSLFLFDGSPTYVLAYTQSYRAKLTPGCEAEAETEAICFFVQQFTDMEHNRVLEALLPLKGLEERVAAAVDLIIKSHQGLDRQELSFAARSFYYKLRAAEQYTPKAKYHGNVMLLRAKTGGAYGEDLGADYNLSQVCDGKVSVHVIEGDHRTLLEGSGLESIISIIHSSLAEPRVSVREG
Chain of Cytochrome P450 2C9 (P11712 whole entry): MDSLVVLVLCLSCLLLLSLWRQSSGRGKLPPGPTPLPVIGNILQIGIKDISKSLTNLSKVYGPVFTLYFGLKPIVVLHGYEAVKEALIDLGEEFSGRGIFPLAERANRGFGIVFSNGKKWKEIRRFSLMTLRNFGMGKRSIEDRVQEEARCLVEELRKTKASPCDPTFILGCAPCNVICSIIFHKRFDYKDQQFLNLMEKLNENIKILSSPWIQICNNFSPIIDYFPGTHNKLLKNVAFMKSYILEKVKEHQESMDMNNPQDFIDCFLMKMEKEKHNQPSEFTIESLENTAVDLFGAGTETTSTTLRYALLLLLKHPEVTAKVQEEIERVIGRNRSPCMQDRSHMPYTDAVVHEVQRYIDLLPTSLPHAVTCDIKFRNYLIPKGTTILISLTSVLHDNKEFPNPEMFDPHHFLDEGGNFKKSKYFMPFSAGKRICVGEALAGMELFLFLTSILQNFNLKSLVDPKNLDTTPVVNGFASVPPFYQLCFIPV
Chain of FAD-linked sulfhydryl oxidase ALR (P55789 whole entry): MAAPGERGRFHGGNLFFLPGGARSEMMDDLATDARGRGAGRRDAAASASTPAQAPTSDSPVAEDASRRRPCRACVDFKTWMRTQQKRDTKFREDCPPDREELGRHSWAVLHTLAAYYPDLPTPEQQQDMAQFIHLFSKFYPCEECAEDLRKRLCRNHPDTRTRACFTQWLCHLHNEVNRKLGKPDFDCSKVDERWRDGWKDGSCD

For c1ccc(C[C@H]2CNCCN2CCC23CC4CC(CC(C4)C2)C3)cc1, the IC50 [1] was > 20 µM (inactive).

For COC(=O)/C=C/S(=O)(=O)c1ccc(NC(C)=O)cc1, the AC50 [2] was 0.118 µM (active), the AC50 [3] was 7.3 µM (active) and the AC50 [4] was 42.2 µM (active). The AC50 [5] was 14.2 µM (active).

For N#Cc1nc(-c2ccco2)oc1N1CCc2ccccc2C1, the IC50 (Nonstructural protein 1) was > 100 µM (active).

With CCCCCCc1nc2ccccc2c(=O)n1NC(=O)c1c(O)c2c(n(CC(C)C)c1=O)CCCC2 the EC50 [6] was 84.9 µM (active), the EC50 (Streptokinase A) was > 150 µM (not active) and the EC50 (Streptococcus) was > 150 µM (not active). For the same molecule, the AC50 [7] was 22.8 µM (active), the AC50 [8] was 69.4 µM (active) and the AC50 [9] was 4.42 µM (active). For the same molecule, the AC50 (Cytochrome P450 1A2) was 15.8 µM (inconclusive) and the AC50 (Cytochrome P450 2C9) was 0.708 µM (inconclusive).

For c1coc(CN(Cc2ccco2)c2ncnc3c2oc2ccccc23)c1, the AC50 [3] was 5.45 µM (active), the AC50 [4] was 67 µM (active) and the AC50 [5] was 3.94 µM (active).

For Nc1nc(N)nc(-c2ccccn2)n1, the IC50 (Nonstructural protein 1) was 19.9 µM (active).

For O=C1C(NS(=O)(=O)c2cccs2)=C(N2CCN(c3cccc(C(F)(F)F)c3)CC2)C(=O)c2ccccc21, the CC50 [10] was 12.4 µM (active), the EC50 [6] was 7.31 µM (active) and the EC50 (Streptokinase A) was > 150 µM (not active). For the same molecule, the EC50 (Streptococcus) was 13.5 µM (active) and the IC50 (Nonstructural protein 1) was 19.6 µM (active).

In the case of Cc1ccc2oc(=O)c3cc(C(=O)NCCCN4CCCC(C)C4)sc3c2c1 (stereo not drawn), the CC50 (Vero) is reported as > 25 µM (active).

In the case of O=C(OCc1nnc(-c2ccccc2)o1)c1ccc(S(=O)(=O)NCc2ccco2)cc1, the IC50 [11] is reported as 13.4 µM (active).

In the case of Cc1ccc(-n2cc(CNC(C)Cc3cnccn3)c(-c3cccc(C)c3)n2)cc1 (stereo not drawn), the EC50 [12] is reported as 5.96 µM (active).

In the case of O=C(C1CCCN(Cc2ccncc2)C1)N1CCc2ccccc2C1 (stereo not drawn), the EC50 [12] is reported as 0.188 µM (active).

In the case of Cc1csc(NC(=O)CSc2sc3c(O)cc(O)nc3c2C#N)n1, the IC50 [11] is reported as 5.14 µM (active).

With O=c1c(Cc2ccccc2)c(O)ccn1CCc1c[nH]cn1 the EC50 [12] was 3.76 µM (active).

For CCN1CCN(c2ccc(S(=O)(=O)N3CCOCC3)cc2NC(=O)c2ccccc2OC(F)F)CC1, the EC50 [12] was 0.299 µM (active).

With Oc1ccc(/C=C/c2ccc3cccc(O)c3n2)cc1Br the EC50 [6] was 1.03 µM (active), the EC50 (Streptococcus) was 2.72 µM (active) and the AC50 [13] was 1.35 µM (active).

With CC1CN(c2ccc([N+](=O)[O-])c3cccnc23)CC(C)N1 (stereo not drawn) the EC50 [12] was 0.335 µM (active).

For O=C(CCCCCN1C(=O)c2cccc3cccc(c23)C1=O)NC1CCS(=O)(=O)C1 (stereo not drawn), the IC50 [1] was > 20 µM (inactive).

With COc1ccc(S(=O)(=O)N(C)C)cc1NC(=O)C1CCN(c2ncnc3sc(C)c(C)c23)CC1 the AC50 [3] was 9.21 µM (active), the AC50 [4] was > 70 µM (inactive) and the AC50 [5] was 18.9 µM (active).

In the case of N#C/C(=C/C1=C(N2CCOCC2)C(=C/c2ccccc2)/CC1)C(=O)Nc1ccccc1F, the IC50 (Nonstructural protein 1) is reported as 3.83 µM (active).

For CCOC(=O)C1(Cc2cccc(F)c2)CCN(Cc2cnn(CC)c2)CC1, the EC50 [12] was 0.668 µM (active).

In the case of N#C/C(=C/c1ccc(OC(=O)c2ccc(Br)s2)cc1)c1nc2ccccc2[nH]1, the IC50 [11] is reported as 1.82 µM (active).

In the case of CC[C@@]1(C(=O)OC)N[C@H](CN(C)C(=O)COc2ccccc2)[C@@H]2C(=O)N(Cc3ccccc3)C(=O)[C@@H]21, the AC50 [7] is reported as 2.2 µM (active), the AC50 [8] is reported as 1.53 µM (active) and the AC50 [9] is reported as 4.2 µM (active). The AC50 [14] was 3.82 µM (active).

With CCc1nc2c(OCc3ccc(C(F)(F)F)cc3)cccn2c1N(C=O)Cc1ccc(OC)cc1 the IC50 (Fatty acid synthase) was 9.21 µM (active).

With CC(=O)Oc1c(OC(C)=O)c(-c2ccc(O)c(O)c2)c(O)c(O)c1-c1ccc(O)cc1 the GI50 (P388/ADR) was 20.7 µM (inactive) and the GI50 (SN12K1) was > 100 µM (inactive).

With O=S(=O)(NCc1ccncc1)c1ccc(F)c(F)c1 the AC50 [3] was 2.09 µM (active), the AC50 [4] was 54.7 µM (active) and the AC50 [5] was 1.2 µM (active).

In the case of O=C(N/N=C/c1cc(Br)c(Br)o1)c1cc2ccccc2o1, the IC50 [11] is reported as 5.65 µM (active).

With COc1cccc(-c2nnc3n2N=C(c2cc(OC)ccc2OC)CS3)c1 the IC50 [1] was > 20 µM (inactive).

For COc1ccc(C(=O)O/N=C2\C(=O)N(C)c3ccccc32)cc1, the AC50 [13] was 1.1 µM (active).

With C=CCNc1ncnc2ccc(Br)cc12 the AC50 [7] was 4.53 µM (active), the AC50 [8] was 39.1 µM (active) and the AC50 [9] was 5.9 µM (active). For the same molecule, the AC50 [14] was 6.46 µM (active).
